{"source": "patent US11446263B2", "about": "“Caspase inhibitor-containing drug for treating or preventing disorders caused by TGF-β, and applications thereof” (The Doshisha, priority 2015, dated 2022)", "key": {"caspase 3": {"test_system": "caspase 3", "assay": "Western blot of caspase 3 after UV irradiation (Example 2)", "type": "cell-based, monkey", "conditions": "UV 100 J/m^2, 9 hours", "description": "1×10^5 cultured monkey corneal endothelial cells were seeded on a 12-well plate coated with FNC Coating Mix and were cultured until reaching confluence under the condition of 5% CO2 at 37° C. Dulbecco's Modified Eagle Medium (DMEM) (Gibco, 12320-032)+10% FBS+1% Penicillin-Streptomycin (nacalai tesque, 26252-94) was used as the medium.\nEach inhibitor was added at the above concentration. The cells were incubated for 18 hours under the condition of 5% CO2 at 37° C. The control group and the UV irradiation group were supplemented with a solvent of each reagent, i.e., DMSO (Dimethyl Sulfoxide, Sterile-filtered) (nacalai tesque, 13408-64). Gibco DMEM+1% P/S (penicillin-streptomycin mixture) was used as the medium.\nThe cell supernatant was then removed, and the cells were irradiated with UV (100 J/m^2). After irradiation, media containing each inhibitor were added to the cells again. The cells were cultured for 9 hours.\nThe cell morphology was observed under a phase difference microscope. After observation, western blot was performed on proteins by the following procedure.\nThe medium was collected on ice to collect free and dead cells. The solution from washing the cells twice with 1×PBS (−) was also collected. 800 g was centrifuged at 4° C. for 5 minutes. The supernatant was discarded to obtain precipitates. The washed cells were supplemented with a protein extraction buffer (RIPA; 50 mM Tris-HCl (pH 7.4), 150 mM NaCl, 1 mM EDTA, 0.1% SDS, 0.5% DOC, 1% NP-40) on ice to extract proteins. The precipitates from centrifuging the free and dead cells were also subsequently suspended together for extraction. The collected solution was pulverized three times for 30 seconds in cold water with a sonication device (BIORUPTOR, TOSHO DENKI) and centrifuged for 10 min at 4° C. at 15000 rpm to collect the supernatant of proteins.\n8 μg of the extracted protein was separated by SDS-PAGE and transferred onto a nitrocellulose membrane. A rabbit anti-caspase 3 antibody (Cell Signaling, 9662), rabbit anti-PARP antibody (Cell Signaling, 9542), and mouse anti-GAPDH antibody (MBL, M171-3) were used as the primary antibodies. A peroxidase-labeled anti-rabbit antibody and anti-mouse antibody (GE Healthcare Biosciences, NA934V, NA931V) were used as the secondary antibodies. For the primary antibodies, rabbit anti-caspase 3 antibody and rabbit anti-PARP antibody: 1000-fold dilution and mouse anti-GAPDH antibody: 3000-fold dilution, while the secondary antibody was diluted 5000-fold. Chemi Lumi ONE Ultra (nacalai tesque, 11644-40) was used for detection. The detected band strength was analyzed with a lumino image analyzer LAS-4000 mini (Fuji Film) and ImageQuant™ software (GE Healthcare)."}, "[1]": {"test_system": "immobilized Fuchs' endothelial corneal dystrophy patient derived cells (iFECD)", "assay": "Cell damage in iFECD due to TGF-β2, phase difference microscope (Example 9)", "type": "cell-based, human", "conditions": "TGF-β2 10 ng/mL, inhibitor 10 μM, 24 hours", "description": "1.2×10^5 iFECDs were seeded on a 12-well plate coated without coating and were cultured for 24 hours under the condition of 5% CO2 at 37° C. Dulbecco's Modified Eagle Medium (nacalai tesque, 26252-94)+10% FBS (Biological Industries/04-001-1A)+1% Penicillin-Streptomycin (nacalai tesque, 26252-94) was used as the medium.\nAfter 24 hours from seeding, each inhibitor was added at a concentration of 10 μM and the cells were incubated for 24 hours under the condition of 5% CO2 at 37° C. The medium was exchanged for the control group and the TGF-β2 group. DMEM+2% FBS+1% P/S was used as the medium.\nSB431542 (Wako Pure Chemical Industries, Ltd./192-16541); Z-VAD-FMK (Peptide Institute/3188-v); Z-VD-FMK (isomer mixture) (Wako Pure Chemical Industries, Ltd./262-02061); and emricasan (CHEMSCENE, LLC/CS-0599).\nNext, TGF-β2 (manufacturer: R&D Systems, Inc., distributor: Wako Pure Chemical Industries, Ltd./manufacturer codes 302-B2-002, 302-B2-010, distributor codes: 553-62881, 5-59-62883) (10 ng/mL) alone, or both TGF-β2 (10 ng/mL) and each inhibitor (10 μM) were added. After 24 hours, cell morphology and programmed cell death were observed using a phase difference microscope."}, "fibronectin": {"test_system": "fibronectin", "assay": "Fibronectin production due to TGF-β2 in iFECD, immunostaining and western blot (Example 17)", "type": "cell-based, human", "conditions": "TGF-β2 10 ng/mL, inhibitor 10 μM, 24 hours", "description": "Round glass was placed on a 24-well plate, disinfected for 5 minutes with ethanol, and coated with laminin-511 E8 Fragment. Then, iFECDs were seeded at 4.0×10^5 each and cultured at 37° C. (5% CO2) until reaching 60 to 70% confluence. Dulbecco's Modified Eagle Medium (DMEM, nacalai tesque, 08456-36)+10% FBS (Thermo Fisher Scientific, S1820-500)+1% penicillin-streptomycin (nacalai tesque, 26252-94) was used as the medium. SB431542 (Wako Pure Chemical Industries, Ltd./192-16541), Z-VD-FMK (isomer mixture) (Wako Pure Chemical Industries, Ltd./262-02061), and emricasan (CHEMSCENE, LLC/CS-0599) were then added at a concentration of 10 μM, and the cells were incubated for 24 hours. The medium was exchanged in the control group and the TFG-β2 supplemented group. DMEM+2% FBS+1% P/S was used as the medium. TGF-β2 alone (10 ng/mL), or both TGF-β2 (10 ng/mL) and each inhibitor (10 μM) were then added. After 24 hours, immunostaining was performed by the following method.\nCells after 24 hours form stimulation were washed with PBS (−) and immobilized with 4% PFA for 10 minutes at room temperature. 0.5% Triton was used for 5 minutes for permeation treatment, and 1% BSA was used for blocking for 1 hour. […] A confocal microscope (Leica Microsystems CMS GmcH Am Friendensplatz 3 68165 Mannheim, Germany) was used to observe fluorescence. […]"}, "p-Smad2": {"test_system": "p-Smad2", "assay": "p-Smad2 western blot in iFECD with TGF-β2 (Example 17)", "type": "cell-based, human", "conditions": "TGF-β2 10 ng/mL, inhibitor 10 μM, 24 hours", "description": "IFECDs were seeded at 1.0×10^5 each on a 12-well plate and cultured at 37° C. (5% CO2) until reaching 60 to 70% confluence. Dulbecco's Modified Eagle Medium (DMEM, nacalai tesque, 08456-36)+10% FBS (Thermo Fisher Scientific, S1820-500)+1% penicillin-streptomycin (nacalai tesque, 26252-94) was used as the medium. SB431542 (Wako Pure Chemical Industries, Ltd./192-16541), Z-VD-FMK (isomer mixture) (Wako Pure Chemical Industries, Ltd./262-02061), and emricasan (CHEMSCENE, LLC/CS-0599) were then added at a concentration of 10 μM, and the cells were incubated for 24 hours. The medium was exchanged in the control group and the TFG-β2 supplemented group. DMEM+2% FBS+1% P/S was used as the medium. TGF-β2 alone (10 ng/mL), or both TGF-β2 (10 ng/mL) and each inhibitor (10 μm) were added. After 24 hours, proteins were collected by the following method.\nThe medium was collected on ice to collect free and dead cells. The solution from washing the cells twice with 1×PBS (−) was also collected, and was centrifuged at 4° C. at 800×g for 15 minutes. The supernatant was discarded to obtain precipitates. […]\nChemi Lumi ONE Ultra (nacalai tesque, 11644-40) was used for detection. The detected band strength was analyzed with Amersham™ Imager 600 (GE Healthcare)."}, "rabbit cornea": {"test_system": "rabbit cornea", "assay": "Cornea preservation using rabbit cornea in Optisol-GS (Example 11)", "type": "cell-based", "conditions": "2 weeks of preservation at 4° C., 10 μM in Optisol-GS", "description": "Rabbit eye balls after 0 to 24 hours from euthanasia were used in the experiment. Under a stereoscopic microscope, the sclera was excised using spring scissors along the corneal limbus, and the lens and iris were removed to prepare a sclerocornea fragment. The sclerocornea fragment was divided into two pieces as the control group and emricasan supplemented groups. After dividing the cornea, the control group was left standing in DMSO supplemented Optisol-GS® (Bausch & Lomb) and the caspase inhibitor supplemented groups were left standing in Optisol-GS® supplemented with emricasan for 2 weeks at 4° C.\nAfter washing the sclerocornea fragment with PBS (−), the fragment was immobilized with 4% formaldehyde for 10 minutes at room temperature (RT) and incubated for 60 minutes with 1% bovine serum albumin (BSA). Antibodies to N-cadherin (BD Bioscience) and ZO-1 (Zymed Laboratories) were used at 1:300 dilution. For secondary antibodies, Alexa Fluor® 488 labeled goat anti-mouse IgG (Life Technologies, A11009) was used at a dilution of 1:1000. A 1:400 dilution of phalloidin (Life Technologies) 546 was used for actin staining. […] Fluorescence was observed using a confocal microscope (TCS SP2 AOBS; Leica Microsystems, Wetzlar Germany). Cells found to have actin contractile rings under a fluorescence microscope were counted to measure the ratio."}}, "data": [{"smiles": "CC(C)[C@@]1(C(=O)N[C@H]2CC(=O)O[C@]2(O)CF)CC(c2nccc3ccccc23)=NO1", "note": "[nivocasan, (R)—N-((2S,3S)-2-(fluoromethyl)-2-hydroxy-5-oxotetrahydrofuran-3-yl)-5-isopropyl-1-3-(isoquinoline-1-yl)-4,5-dihydroisoxazole-5-carboxamide]", "values": [{"measurement": "effect of suppressing caspase 3", "setting": "caspase 3; concentration of 100 μM", "result": "observed"}]}, {"smiles": "NC(=O)c1ccc(-c2nc(-c3ccc4c(c3)OCO4)c(-c3ccccn3)[nH]2)cc1", "note": "[SB431542]", "values": [{"measurement": "programmed cell death", "setting": "[1]", "result": "suppressed"}, {"measurement": "expression / overexpression of fibronectin", "setting": "fibronectin", "result": "suppressed"}, {"measurement": "phosphorylated Smad2 (p-Smad2)", "setting": "p-Smad2", "result": "not found"}]}, {"smiles": "C[C@H](NC(=O)C(=O)Nc1ccccc1C(C)(C)C)C(=O)N[C@@H](CC(=O)O)C(=O)COc1c(F)c(F)cc(F)c1F", "note": "[emricasan, 3-[2-[(2-tert-butyl-phenylaminooxalyl)-amino]-propionylamino]-4-oxo-5-(2,3,5,6-tetrafluoro-phenoxy)-pentanoic acid]", "values": [{"measurement": "inactive form cleaved caspase 3 of about 19 kDa", "setting": "caspase 3; addition of 1 and 3 μM", "result": "hardly observed"}, {"measurement": "active form cleaved caspase 3 of about 17 kDa", "setting": "caspase 3; all tested concentrations", "result": "not observed"}, {"measurement": "inactive form cleaved caspase 3 of about 19 kDa", "setting": "caspase 3; other concentrations (10, 30, 100 μM)", "result": "not observed"}, {"measurement": "actin contractile rings", "setting": "rabbit cornea", "result": "significantly suppressed"}, {"measurement": "cell damage", "setting": "rabbit cornea", "result": "hardly any cell damage"}, {"measurement": "expression / overexpression of fibronectin", "setting": "fibronectin", "result": "suppressed"}, {"measurement": "phosphorylated Smad2 (p-Smad2)", "setting": "p-Smad2", "result": "found"}]}]}
